Laboratory results from publication PMC10281575, “PfCRT mutations conferring piperaquine resistance in falciparum malaria shape the kinetics of quinoline drug binding and transport” (PLOS Pathogens, 2023).
Substitutions are numbered along the chain they refer to. Several values for one entry are separate records, joined by “and”; a condition that tells them apart may be missing. Equal entries are not always repeated.

Tests used:
PfCRT^Dd2 = molecular target: T1, PfCRT^Dd2 (Plasmodium falciparum, UniProt Q8IBZ9, A220S/I356T/K76T/M74I/N326S/N75E/Q271E/R371I); assay: Verapamil inhibition of PfCRT-mediated CQ and PPQ transport in oocytes, PfCRT^Dd2; format: cell-based; design: expressed in transfected cells; host or cells: Xenopus laevis oocytes injected with in vitro transcribed RNA (pSP64T); conditions: individual replicates (S3 Fig)
T1 sequence (Q8IBZ9 1-424 M74I/N75E/K76T/A220S/Q271E/N326S/I356T/R371I): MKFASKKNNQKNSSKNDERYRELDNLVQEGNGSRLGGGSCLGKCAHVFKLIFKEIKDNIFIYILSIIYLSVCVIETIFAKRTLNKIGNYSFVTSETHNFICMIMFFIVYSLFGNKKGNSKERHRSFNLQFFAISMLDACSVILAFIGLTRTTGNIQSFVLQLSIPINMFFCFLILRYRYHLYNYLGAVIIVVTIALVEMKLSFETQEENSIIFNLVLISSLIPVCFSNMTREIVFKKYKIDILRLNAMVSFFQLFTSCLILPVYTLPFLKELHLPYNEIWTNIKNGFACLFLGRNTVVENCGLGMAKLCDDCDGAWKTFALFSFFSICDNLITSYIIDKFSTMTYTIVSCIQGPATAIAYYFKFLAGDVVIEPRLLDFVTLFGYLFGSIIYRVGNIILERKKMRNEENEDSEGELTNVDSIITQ
Method: (§1) In all cases, the PfCRT-mediated CQ and PPQ transport was inhibited in the presence of 100 μM verapamil (S3 Fig).
(§2) Drug transport assays were performed as previously described. Briefly, measurements of radiolabeled drug uptake were made over 1 h, unless otherwise specified. […] Where specified, one or more unlabeled drugs were also present at the indicated concentrations. The direction of drug transport in the assays is from the extracellular medium (pH 6) into the oocyte cytosol (pH 7.2), which corresponds to the efflux of CQ or PPQ from the acidic digestive vacuole (pH 5.2) into the parasite cytosol (pH 7.2). The uptake assays were terminated by removing the oocytes from the reaction medium and washing them three times with 2 mL of ice-cold ND96 buffer. Each oocyte was transferred to a separate scintillation vial and lysed by the addition of 200 μL of a 5% SDS solution. The radioactivity in the sample was measured using a liquid scintillation analyser Tri-Carb 4910 TR (PerkinElmer). Water-injected oocytes were analyzed in parallel as a negative control. The buffer from each condition was measured in duplicate in parallel to each experiment to transform counts per minute into pmol of drug. Drug uptake attributable to PfCRT was determined by subtracting the background uptake from water-injected oocytes from that of PfCRT-expressing oocytes. In all cases, at least three independent experiments were performed on oocytes from different frogs, and for each condition in an experiment, measurements were made from 10 oocytes per treatment.
(§3) Supplementary file ppat.1011436.s006.tif: S3 Fig Verapamil inhibits PfCRT-mediated transport of CQ and PPQ. […] Left panels, data is shown as individual biological replicates (coloured symbols) overlaid onto bars representing the Mean ± S.E.M. (error bars). A one-tailed Student’s t-test was performed between untreated (no VP) and treated (+ 100 μM VP) samples, and the obtained p values are shown. Right panels, the uptake in VP-treated samples was divided by the uptake in their corresponding untreated pairs and subtracted from 100% to get the percentage of uptake inhibition mediated by the presence of 100 μM verapamil in the extracellular medium. Error bars are S.E. (TIF) Click here for additional data file.

PfCRT^Dd2_G353V = molecular target: T2, PfCRT^Dd2_G353V (Plasmodium falciparum, UniProt Q8IBZ9, A220S/G353V/I356T/K76T/M74I/N326S/N75E/Q271E/R371I); assay: Verapamil inhibition of PfCRT-mediated CQ and PPQ transport in oocytes, PfCRT^Dd2_G353V; format: cell-based; conditions: individual replicates (S3 Fig)
T2 construct: expressed in transfected cells; host or cells: Xenopus laevis oocytes injected with in vitro transcribed RNA (pSP64T)
T2 sequence (Q8IBZ9 1-424 M74I/N75E/K76T/A220S/Q271E/N326S/G353V/I356T/R371I): T1 sequence (Q8IBZ9 1-424 M74I/N75E/K76T/A220S/Q271E/N326S/I356T/R371I) with G353V
Method: as §1, §2, §3

SMILES	PfCRTDd2-mediated PPQ transport (PfCRT^Dd2; 50 µM PPQ + 100 µM VP)	PfCRTDd2-mediated PPQ transport (PfCRT^Dd2; 50 µM PPQ)	PfCRTDd2_G353V-mediated PPQ transport (PfCRT^Dd2_G353V; 50 µM PPQ + 100 µM VP)	PfCRTDd2_G353V-mediated PPQ transport (PfCRT^Dd2_G353V; 50 µM PPQ)	PfCRTDd2-mediated CQ transport (PfCRT^Dd2; 50 µM CQ + 100 µM VP)	PfCRTDd2-mediated CQ transport (PfCRT^Dd2; 50 µM CQ)	PfCRTDd2_G353V-mediated CQ transport (PfCRT^Dd2_G353V; 50 µM CQ + 100 µM VP)	PfCRTDd2_G353V-mediated CQ transport (PfCRT^Dd2_G353V; 50 µM CQ)
Clc1ccc2c(N3CCN(CCCN4CCN(c5ccnc6cc(Cl)ccc56)CC4)CC3)ccnc2c1 [PPQ, piperaquine]	5.44 pmol oocyte-1 h-1 and 8.16 pmol oocyte-1 h-1 and 20.06 pmol oocyte-1 h-1 and 36.26 pmol oocyte-1 h-1 and 13.97 pmol oocyte-1 h-1	28.14 pmol oocyte-1 h-1 and 21.87 pmol oocyte-1 h-1 and 89.78 pmol oocyte-1 h-1 and 46.28 pmol oocyte-1 h-1 and 30.01 pmol oocyte-1 h-1 and 33.33 pmol oocyte-1 h-1	18.21 pmol oocyte-1 h-1 and 25.90 pmol oocyte-1 h-1 and 37.78 pmol oocyte-1 h-1 and 29.33 pmol oocyte-1 h-1 and 30.34 pmol oocyte-1 h-1	29.38 pmol oocyte-1 h-1 and 45.38 pmol oocyte-1 h-1 and 21.36 pmol oocyte-1 h-1 and 40.00 pmol oocyte-1 h-1 and 56.34 pmol oocyte-1 h-1 and 56.46 pmol oocyte-1 h-1 and 95.52 pmol oocyte-1 h-1 and 62.83 pmol oocyte-1 h-1				
CCN(CC)CCCC(C)Nc1ccnc2cc(Cl)ccc12 (centres unmarked) [CQ, chloroquine]					1.980 pmol oocyte-1 h-1 and 2.230 pmol oocyte-1 h-1 and 2.450 pmol oocyte-1 h-1 and 1.670 pmol oocyte-1 h-1 and 3.620 pmol oocyte-1 h-1	3.900 pmol oocyte-1 h-1 and 4.910 pmol oocyte-1 h-1 and 4.760 pmol oocyte-1 h-1 and 7.490 pmol oocyte-1 h-1 and 5.040 pmol oocyte-1 h-1 and 3.980 pmol oocyte-1 h-1 and 10.460 pmol oocyte-1 h-1	3.530 pmol oocyte-1 h-1 and 3.520 pmol oocyte-1 h-1 and 2.870 pmol oocyte-1 h-1 and 2.520 pmol oocyte-1 h-1 and 3.380 pmol oocyte-1 h-1	4.740 pmol oocyte-1 h-1 and 5.010 pmol oocyte-1 h-1 and 2.880 pmol oocyte-1 h-1 and 3.920 pmol oocyte-1 h-1 and 4.760 pmol oocyte-1 h-1
